Experimental data taken from article PMC5380139 (FEBS letters, 2017).
pKi: −log10 of the molar value.

Molecular target: T1, LipL (Streptomyces sp., UniProt D4QF25)
T1 sequence (D4QF25 1-274): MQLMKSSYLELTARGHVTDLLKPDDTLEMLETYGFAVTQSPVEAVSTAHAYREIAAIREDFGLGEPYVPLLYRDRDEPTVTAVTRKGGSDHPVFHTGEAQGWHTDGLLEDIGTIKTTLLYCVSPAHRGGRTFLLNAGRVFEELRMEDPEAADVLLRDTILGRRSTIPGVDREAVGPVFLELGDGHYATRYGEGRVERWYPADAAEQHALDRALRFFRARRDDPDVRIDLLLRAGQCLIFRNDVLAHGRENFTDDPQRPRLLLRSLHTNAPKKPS
Assay type: biochemical

Compound `O=c1ccn([C@@H]2O[C@H](CCP(=O)(O)O)[C@@H](O)[C@H]2O)c(=O)[nH]1` [UMcP, 5′-deoxyuridine-5′-methylphosphonate] has a pKi of 6.10.
